Test results reported in PubChem BioAssay (NCI).
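All cell lines were grown in 96-well plates and treated with compound for 48 hours. GI50: concentration for 50% inhibition of growth. Definition used: TGI = concentration required for complete inhibition of growth.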

How the values were obtained:
Assay in all cases: DTP human tumour cell line panel, 48 h
T-47D breast = test system: T-47D breast
NCI/ADR-RES ovarian = test system: NCI/ADR-RES ovarian
NCI-H23 lung = test system: NCI-H23 lung
UO-31 renal = test system: UO-31 renal
HS 578T breast = test system: HS 578T breast
SR leukemia = test system: SR leukemia
SW-620 colon = test system: SW-620 colon
KM12 colon = test system: KM12 colon
CAKI-1 renal = test system: CAKI-1 renal
K-562 leukemia = test system: K-562 leukemia
MOLT-4 leukemia = test system: MOLT-4 leukemia
DU-145 prostate = test system: DU-145 prostate
MALME-3M melanoma = test system: MALME-3M melanoma
EKVX NSCLC = test system: EKVX NSCLC
HCT-15 colon = test system: HCT-15 colon
UACC-62 melanoma = test system: UACC-62 melanoma
SK-MEL-5 melanoma = test system: SK-MEL-5 melanoma
MCF7 breast = test system: MCF7 breast
ACHN renal = test system: ACHN renal
MDA-MB-231 breast = test system: MDA-MB-231 breast
RXF 393 renal = test system: RXF 393 renal
RPMI-8226 leukemia = test system: RPMI-8226 leukemia
SK-OV-3 ovarian = test system: SK-OV-3 ovarian
SF-268 CNS = test system: SF-268 CNS
HT29 colon = test system: HT29 colon
SF-295 CNS = test system: SF-295 CNS
SK-MEL-2 melanoma = test system: SK-MEL-2 melanoma
OVCAR-5 ovarian = test system: OVCAR-5 ovarian
MDA-MB-435 = test system: MDA-MB-435
BT-549 breast = test system: BT-549 breast
SF-539 CNS = test system: SF-539 CNS
OVCAR-3 ovarian = test system: OVCAR-3 ovarian
M14 melanoma = test system: M14 melanoma
NCI-H460 lung = test system: NCI-H460 lung
HCC-2998 colon = test system: HCC-2998 colon
A498 renal = test system: A498 renal
OVCAR-4 ovarian = test system: OVCAR-4 ovarian
COLO 205 colon = test system: COLO 205 colon
786-0 renal = test system: 786-0 renal
TK-10 renal = test system: TK-10 renal
SNB-19 CNS = test system: SNB-19 CNS
OVCAR-8 ovarian = test system: OVCAR-8 ovarian
A549 NSCLC = test system: A549 NSCLC
SN12C renal = test system: SN12C renal
U251 CNS = test system: U251 CNS
HCT-116 colon = test system: HCT-116 colon
PC-3 prostate = test system: PC-3 prostate
LOX IMVI melanoma = test system: LOX IMVI melanoma
NCI-H522 lung = test system: NCI-H522 lung
SK-MEL-28 melanoma = test system: SK-MEL-28 melanoma
UACC-257 melanoma = test system: UACC-257 melanoma
HOP-62 NSCLC = test system: HOP-62 NSCLC
NCI-H226 lung = test system: NCI-H226 lung
IGROV1 ovarian = test system: IGROV1 ovarian
SNB-75 CNS = test system: SNB-75 CNS
HOP-92 NSCLC = test system: HOP-92 NSCLC

## COc1ccc(Nc2nc3cc(N)cc(N)c3nc2-c2ccccc2)cc1OC
T-47D breast
  GI50: 14.4 µM
  TGI: 38.2 µM
NCI/ADR-RES ovarian
  GI50: 17.2 µM
  TGI: 42.7 µM
NCI-H23 lung
  GI50: 26.3 µM
  TGI: 80.1 µM
UO-31 renal
  GI50: 28.1 µM
  TGI: > 100 µM
HS 578T breast
  GI50: 18.5 µM
  TGI: 50.2 µM
SR leukemia
  GI50: 2.67 µM
  TGI: 21.8 µM
SW-620 colon
  GI50: 15.5 µM
  TGI: 35.9 µM
KM12 colon
  GI50: 14.8 µM
  TGI: 32 µM
CAKI-1 renal
  GI50: 18.3 µM
  TGI: 66 µM
K-562 leukemia
  GI50: 20.2 µM
  TGI: 71.2 µM
MOLT-4 leukemia
  GI50: 6.91 µM
  TGI: > 100 µM
DU-145 prostate
  GI50: 45 µM
  TGI: > 100 µM
MALME-3M melanoma
  GI50: 15.7 µM
  TGI: 35.7 µM
EKVX NSCLC
  GI50: 25.6 µM
  TGI: 71.1 µM
HCT-15 colon
  GI50: 29 µM
  TGI: > 100 µM
UACC-62 melanoma
  GI50: 13.4 µM
  TGI: 27.4 µM
SK-MEL-5 melanoma
  GI50: 12.2 µM
  TGI: 25.5 µM
MCF7 breast
  GI50: 20.5 µM
  TGI: 44.8 µM
ACHN renal
  GI50: 27.4 µM
  TGI: > 100 µM
MDA-MB-231 breast
  GI50: 4.92 µM
  TGI: 18.5 µM
RXF 393 renal
  GI50: 8.15 µM
  TGI: 49.4 µM
RPMI-8226 leukemia
  GI50: 7.95 µM
  TGI: 28.3 µM
SK-OV-3 ovarian
  GI50: 38.2 µM
  TGI: 87.5 µM
SF-268 CNS
  GI50: 14.2 µM
  TGI: 47.1 µM
HT29 colon
  GI50: 25.2 µM
  TGI: 52.7 µM
SF-295 CNS
  GI50: 16.9 µM
  TGI: 45.3 µM
SK-MEL-2 melanoma
  GI50: 27.2 µM
  TGI: > 100 µM
OVCAR-5 ovarian
  GI50: 29.7 µM
  TGI: 72.7 µM
MDA-MB-435
  GI50: 16.3 µM
  TGI: 32.1 µM
BT-549 breast
  GI50: 25.9 µM
  TGI: 81.6 µM
SF-539 CNS
  GI50: 16.2 µM
  TGI: 37.5 µM
OVCAR-3 ovarian
  GI50: 29.9 µM
  TGI: > 100 µM
M14 melanoma
  GI50: 21 µM
  TGI: 69.8 µM
NCI-H460 lung
  GI50: 20.5 µM
  TGI: > 100 µM
HCC-2998 colon
  GI50: 18.4 µM
  TGI: 39.6 µM
A498 renal
  GI50: 11.7 µM
  TGI: 55.7 µM
OVCAR-4 ovarian
  GI50: 18.7 µM
  TGI: 52.1 µM
COLO 205 colon
  GI50: 19.8 µM
  TGI: 41.2 µM
786-0 renal
  GI50: 23.8 µM
  TGI: 90.3 µM
TK-10 renal
  GI50: 20.9 µM
  TGI: 58.5 µM
SNB-19 CNS
  GI50: 35.4 µM
  TGI: > 100 µM
OVCAR-8 ovarian
  GI50: 33.6 µM
  TGI: > 100 µM
A549 NSCLC
  GI50: 35.2 µM
  TGI: > 100 µM
SN12C renal
  GI50: 16.7 µM
  TGI: 44.1 µM
U251 CNS
  GI50: 26 µM
  TGI: > 100 µM
HCT-116 colon
  GI50: 14.9 µM
  TGI: 29.7 µM
PC-3 prostate
  GI50: 14 µM
  TGI: 36 µM
LOX IMVI melanoma
  GI50: 25.8 µM
  TGI: 72.2 µM
NCI-H522 lung
  GI50: 28.9 µM
  TGI: > 100 µM
SK-MEL-28 melanoma
  GI50: 21.5 µM
  TGI: 49.7 µM
UACC-257 melanoma
  GI50: 35.6 µM
  TGI: > 100 µM
HOP-62 NSCLC
  GI50: 34.8 µM
  TGI: > 100 µM
NCI-H226 lung
  GI50: 18.7 µM
  TGI: 57.1 µM
IGROV1 ovarian
  GI50: 24.8 µM
  TGI: > 100 µM

## O=S(=O)(O)Oc1cc2c(c(OS(=O)(=O)O)c1)C[C@H](OS(=O)(=O)O)[C@@H](c1ccc(OS(=O)(=O)O)c(OS(=O)(=O)O)c1)O2
T-47D breast
  TGI: > 100 µM
NCI/ADR-RES ovarian
  TGI: > 100 µM
UO-31 renal
  TGI: > 100 µM
HS 578T breast
  TGI: > 100 µM
SR leukemia
  TGI: > 100 µM
SW-620 colon
  TGI: > 100 µM
SNB-75 CNS
  TGI: > 100 µM
MOLT-4 leukemia
  TGI: > 100 µM
MALME-3M melanoma
  TGI: > 100 µM
EKVX NSCLC
  TGI: > 100 µM
HCT-15 colon
  TGI: > 100 µM
HOP-92 NSCLC
  TGI: > 100 µM
UACC-62 melanoma
  TGI: > 100 µM
SK-MEL-5 melanoma
  TGI: > 100 µM
MCF7 breast
  TGI: > 100 µM
ACHN renal
  TGI: > 100 µM
MDA-MB-231 breast
  TGI: > 100 µM
SK-OV-3 ovarian
  TGI: > 100 µM
SF-268 CNS
  TGI: > 100 µM
HT29 colon
  TGI: > 100 µM
SF-295 CNS
  TGI: > 100 µM
SK-MEL-2 melanoma
  TGI: > 100 µM
OVCAR-5 ovarian
  TGI: > 100 µM
BT-549 breast
  TGI: > 100 µM
OVCAR-3 ovarian
  TGI: > 100 µM
M14 melanoma
  TGI: > 100 µM
NCI-H460 lung
  TGI: > 100 µM
OVCAR-4 ovarian
  TGI: > 100 µM
COLO 205 colon
  TGI: > 100 µM
SNB-19 CNS
  TGI: > 100 µM
OVCAR-8 ovarian
  TGI: > 100 µM
A549 NSCLC
  TGI: > 100 µM
SN12C renal
  TGI: > 100 µM
PC-3 prostate
  TGI: > 100 µM
LOX IMVI melanoma
  TGI: > 100 µM
NCI-H522 lung
  TGI: > 100 µM
UACC-257 melanoma
  TGI: > 100 µM
HOP-62 NSCLC
  TGI: > 100 µM
NCI-H226 lung
  TGI: > 100 µM
IGROV1 ovarian
  TGI: > 100 µM
